Laboratory results: patent US20170056336A1, “CO-TARGETING ANDROGEN RECEPTOR SPLICE VARIANTS AND MTOR SIGNALING PATHWAY FOR THE TREATMENT OF CASTRATION-RESISTANT PROSTATE CANCER” (British Columbia Cancer Agency Branch, priority 2015, published 2017)

Legend:
[1] = tested on: mTOR and AR pathways in LNCaP95 cells; assay: Western blot analysis of mTOR and AR pathways in LNCaP95 cells; format: cell-based, human; conditions: LNCaP95 cells
Procedure: Cells were harvested and whole-cell lysate (10 to 15 ug) was subjected to SDS-PAGE. Antibodies used were: AR (1:1000; Santa Cruz), AR-V7 (1:400; Precision), p110α (1:500; BD Bioscience), p110β (1:1000; abcam), […] (1:1000; abcam), p110δ (1:1000; abcam), UBE2C (Boston Biochem; 1:1000), PTEN (1:1000), pS6 (1:2000), pAktThr308 (1:1000), pAktSer473 (1:2000), p4EBP1 (1:1000), total-Akt (1:1000), total-S6 (1:1000), total-4EBP1 (1:1000), pERK/MAPK (1:1000), total-ERK/MAPK (1:1000) from Cell Signaling technology (Danvers, Mass.). β-actin (1:10,000, Abcam) was used as a loading control.
Protein levels of PSA were undetectable in LNCaP95 cells.

LNCaP95 cells = assay: Cell proliferation BrdU immunoassay; format: cell-based, human; conditions: R1881 0.1 nM, 48 h, serum-free, Compound A 25 uM, enzalutamide 10 uM, BEZ-235 15 nM, everolimus 10 nM
AR-V567 = biological target: T1, AR-V567 (Homo sapiens, UniProt P10275); assay: PB-luciferase assay in Cos-1 cells transfected with AR-V567; format: cell-based; conditions: 24 h, serum-free
T1 construct: expressed in transfected cells; host or cells: Cos-1
T1 sequence (P10275 with tags, fused parts or gaps limits assumed): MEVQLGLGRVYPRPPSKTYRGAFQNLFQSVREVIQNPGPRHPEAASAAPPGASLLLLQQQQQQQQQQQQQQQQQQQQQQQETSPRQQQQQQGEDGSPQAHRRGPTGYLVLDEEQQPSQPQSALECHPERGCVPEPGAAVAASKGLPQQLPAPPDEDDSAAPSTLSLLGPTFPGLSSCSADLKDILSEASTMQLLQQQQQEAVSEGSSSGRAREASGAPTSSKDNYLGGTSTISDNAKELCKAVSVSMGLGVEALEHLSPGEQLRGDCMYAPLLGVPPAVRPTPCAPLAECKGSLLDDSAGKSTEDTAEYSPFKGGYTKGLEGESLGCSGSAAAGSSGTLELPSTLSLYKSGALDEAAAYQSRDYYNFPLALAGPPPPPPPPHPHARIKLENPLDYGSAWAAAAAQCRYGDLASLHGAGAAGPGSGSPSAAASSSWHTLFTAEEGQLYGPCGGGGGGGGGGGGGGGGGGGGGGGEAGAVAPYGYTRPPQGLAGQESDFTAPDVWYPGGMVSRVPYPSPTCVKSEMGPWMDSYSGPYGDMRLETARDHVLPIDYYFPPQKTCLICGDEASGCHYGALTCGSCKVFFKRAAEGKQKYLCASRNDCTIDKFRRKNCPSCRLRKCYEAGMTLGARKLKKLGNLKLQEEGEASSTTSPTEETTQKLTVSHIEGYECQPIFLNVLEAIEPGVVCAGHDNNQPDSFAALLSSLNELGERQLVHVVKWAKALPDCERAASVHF
Source text: Ectopic protein levels of AR-V7 and AR-V567 in Cos-1 cells are shown relative to endogenous levels of FL-AR in LNCaP cells.

AR NTD = biological target: T2, AR NTD (Homo sapiens, UniProt P10275); assay: AR NTD transactivation assay in LNCaP95 cells; format: cell-based; conditions: 24 h
T2 sequence (P10275 1-558): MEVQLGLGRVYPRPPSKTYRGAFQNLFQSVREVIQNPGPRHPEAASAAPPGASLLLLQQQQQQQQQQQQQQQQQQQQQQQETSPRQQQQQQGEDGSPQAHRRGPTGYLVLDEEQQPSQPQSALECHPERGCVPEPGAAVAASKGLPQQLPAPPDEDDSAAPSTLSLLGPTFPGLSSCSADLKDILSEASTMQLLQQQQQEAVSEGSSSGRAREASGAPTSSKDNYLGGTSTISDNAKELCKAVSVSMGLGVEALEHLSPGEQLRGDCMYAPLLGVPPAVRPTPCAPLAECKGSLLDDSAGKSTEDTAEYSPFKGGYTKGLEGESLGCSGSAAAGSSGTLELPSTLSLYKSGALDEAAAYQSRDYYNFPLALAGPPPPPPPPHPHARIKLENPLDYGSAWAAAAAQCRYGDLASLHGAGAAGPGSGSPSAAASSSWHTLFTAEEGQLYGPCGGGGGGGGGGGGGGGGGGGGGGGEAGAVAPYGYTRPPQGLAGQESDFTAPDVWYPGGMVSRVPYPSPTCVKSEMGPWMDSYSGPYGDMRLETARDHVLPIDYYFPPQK
Procedure: Transactivation assays of the AR NTD were performed in LNCaP and LNCaP95 cells cotransfected with p5xGal4UAS-TATA-luciferase and AR NTD-Gal4DBD (FIG. 2D). […] LNCaP95 cells were harvested 24 h after the treatment of indicated compounds.
The AR NTD is essential for full transcriptional activities (Quayle, S. N. et. al., PNAS 2007, 104, 1331-1336). In LNCaP cells, transactivation of the AR NTD can be induced with IL-6 or by stimulation of the PKA pathway with FSK. In LNCaP95 cells, there is high intrinsic activity of the AR NTD which cannot be further induced by stimulation of these pathways.

[2] = absence of androgen, BEZ-235 15 nM

Cn1c(=O)n(-c2ccc(C(C)(C)C#N)cc2)c2c3cc(-c4cnc5ccccc5c4)ccc3ncc21 [BEZ-235, 2-methyl-2-[4-(3-methyl-2-oxo-8-quinolin-3-ylimidazo[4,5-c]quinolin-1-yl)phenyl]propanenitrile]
pAkt ([1]; 500 nM BEZ-235): inhibited | levels of UBE2C ([1]; 48 h): decreased | pAkt ([1]; BEZ-235 15 nM, everolimus): did not impact | levels of AR-V7 [1, 2]: increased | levels of FL-AR [1, 2]: increased | protein levels of FL-AR ([1]; titration experiments): increased | pS6 ribosomal protein ([1]; titration, BEZ-235 15 nM, everolimus 10 nM): inhibited | proliferation (BrdU incorporation) (LNCaP95 cells): inhibited | transcriptional activity of AR-V567 (AR-V567): no effect | intrinsic activity of AR NTD (AR NTD): no effect
